Earlier results on one compound are cited in patent US20090269770A1, “METHODS FOR EVALUATION PROGNOSIS AND FOLLOW-UP OF DRUG TREATMENT OF PSYCHIATRIC DISEASES OR DISORDERS” (priority 2008, published 2009).

The data set deals with negative symptoms of schizophrenia. To be noted: non-serotonergic antidepressant add-on (Silver and Shmugliakov, 1998); cited from earlier work.

The structures appear in SMILES notation.

For the compound `CNCCCC12CCC(c3ccccc31)c1ccccc12` [maprotaline], the “effect on negative symptoms” value is recorded as “did not improve negative symptoms”.
